Results reported in patent US20080044428A1, “Glycosylphosphatidylinositol Glycan Signalling Via Integrins Functioning as Glycan Specific Receptors” (THE WALTER AND ELIZA HALL INSTITUTE OF MEDICAL RES, priority 2004, published 2008).

Columns and labels:
[1] = test system: αMβ2-integrin, also known as CR3 or Mac-1; assay: FACS binding of fluoresceinated conjugates to CHO cells transfected with αMβ2-integrin; details: FACS analysis, CHO-Mac1 cells
From the text: (§1) Sham conjugation procedures were also followed substituting cysteine for glycan.

[2] = test system: sham-transfected CHO cells (CHO-Neo); assay: FACS binding of fluoresceinated conjugates to sham-transfected CHO cells; details: FACS analysis
From the text: as §1

Sequence of αMβ2-integrin, also known as CR3 or Mac-1 (P05107 23-769, other chains not shown): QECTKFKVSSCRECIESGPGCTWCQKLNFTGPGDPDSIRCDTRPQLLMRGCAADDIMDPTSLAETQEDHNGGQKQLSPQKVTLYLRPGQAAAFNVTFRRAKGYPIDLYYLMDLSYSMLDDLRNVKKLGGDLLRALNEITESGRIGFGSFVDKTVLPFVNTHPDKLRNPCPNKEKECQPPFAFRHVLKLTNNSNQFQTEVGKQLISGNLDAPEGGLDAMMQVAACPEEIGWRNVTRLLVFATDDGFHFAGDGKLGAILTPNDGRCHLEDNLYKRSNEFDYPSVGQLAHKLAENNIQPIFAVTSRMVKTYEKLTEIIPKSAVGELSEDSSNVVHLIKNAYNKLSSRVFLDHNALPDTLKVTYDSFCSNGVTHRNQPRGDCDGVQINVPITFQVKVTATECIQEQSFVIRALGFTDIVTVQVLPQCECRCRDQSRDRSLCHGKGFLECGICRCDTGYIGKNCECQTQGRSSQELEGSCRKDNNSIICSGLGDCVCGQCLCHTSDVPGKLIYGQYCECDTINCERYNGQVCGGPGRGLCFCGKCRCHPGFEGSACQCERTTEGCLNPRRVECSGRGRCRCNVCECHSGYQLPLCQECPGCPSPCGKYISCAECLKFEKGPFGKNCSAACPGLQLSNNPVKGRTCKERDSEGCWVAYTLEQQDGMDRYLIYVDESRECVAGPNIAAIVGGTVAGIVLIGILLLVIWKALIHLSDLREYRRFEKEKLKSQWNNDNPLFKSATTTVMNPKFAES

Substance: fluoresceinated BSA-cysteine: sham conjugate of BSA carrier protein substituting cysteine for glycan, fluoresceinated
- binding to CHO cells transfected with αMβ2-integrin [1]: 0.69%
- binding to sham-transfected CHO cells (CHO-Neo) [2]: 0.4%
